Assay results reported in patent US20200123127A1, “REMOVAL OF SENESCENCE-ASSOCIATED MACROPHAGES” (EVERON BIOSCIENCES, INC., priority 2016, published 2020).
Where two headings read alike, the source gives them in different places.

How the values were obtained:
[1] = test system: RWPE-1 normal prostate epithelial cells; test: dnPTEN-induced senescence model in RWPE-1 cells (SA-beta-Gal and methylene blue staining); assay type: cell-based; settings: 10 uM for 72 hours
Procedure: FIG. 3. Activity of A1.1 and analog A1.12 in a model of dnPTEN-induced senescence in RWPE-1 normal prostate epithelial cells. A population of transduced RWPE-1 cells containing doxycycline-inducible dnPTEN was senesced via 1 ug/ml doxycycline for 7 days. Cells which bypass senescence continued to proliferate to form a confluent monolayer. The mixed population of senescent and proliferating cells was treated with A1.1 and A1.12 at 10 uM for 72 hours. SA-beta-Gal staining was used to monitor the amount of senescent cells of treatment groups compared to non-treated control. In addition, methylene blue was used to quantitate overall cell mass, which was comprised mostly of the non-senescent, proliferating cells. Treatment with the anti-senescent compounds led to a substantial decrease in SA-beta-Gal staining, while the amount of methylene blue staining was less affected.
Senescent cells are strongly associated with benign prostate hyperplasia (BPH) and the development of prostate cancer [Vital, P. et al. (2014) The Senescence-Associated Secretory Phenotype Promotes Benign Prostatic Hyperplasia. Am J Pathol, 184(3): 721-731; Burton, D. et al. (2013). Androgen Deprivation-Induced Senescence Promoted Outgrowth of Anderogen-Refractory Protstate Cancer Cells. PLOS One, 8(6):e68003]. […] We sought to evaluate the efficacy of our compounds in a model of RWPE-1 normal prostate epithelial cells transduced with a construct for inducible loss of PTEN function [doxycycline-inducible expression of a dominant-negative PTEN (dnPTEN) mutant]. In the presence of doxycycline, a fraction of the population of transduced cells became senescent, while cells bypassing senescence continued to grow until a confluent monolayer was formed.

[2] = test system: mSQ primary adipose-derived mesenchymal stromal cells; test: Anti-senescent cytotoxicity, senescent vs proliferating mSQ; assay type: cell-based, Mouse; settings: for IC50: Mus musculus
[3] = test system: human neonatal dermal fibroblasts (NDF); test: Resazurin viability assay, senescent vs proliferating/quiescent human neonatal dermal fibroblasts; assay type: cell-based; settings: for IC50: Homo sapiens, Fibroblast
B16 cells = test: In vitro growth and viability of B16 cells (resazurin); assay type: cell-based; settings: 72 hour exposure, up to 20 uM
From the text: FIG. 4. Efficacy of A1.1 analogs in the senescence-enhanced B16 metastasis model. (A) Quantification of metastatic nodules by H&E morphometric analysis, and the resulting reduction in tumor burden (%) compared to vehicle control. (B) Quantitation morphometric analysis of lungs excised from irradiated mice treated with analogs of A1.1 post-inoculation of B16 cell intravenously, along with quantitation of morphometric analysis, are provided. (C) In vitro testing of A1.1 and analogs against the growth and viability of B16 cells, as assessed by the resazurin viability assay after 72 hour exposure to compounds compared to non-treated controls.
The role of senescent cells in the promotion of metastatic potential of cancer cells has also been described [Patent WO 2013090645 A1; Campisi, J. (2015). Cancer and Aging: Rival Demons]. […] To test the efficacy of A1.1, irradiated (11 Gy followed by bone-marrow transplantation) and non-irradiated C57BL/6 mice received B16 melanoma cells via tail vein injection were subsequently (72 hours later) administered A1.1 (20 mg/kg) intraperitoneally once a day for 5 consecutive days.
Synthesized analogs were also tested in vivo, to assess whether optimized structures are capable of showing activity against senescence-mediated B16 lung metastasis in irradiated mice (FIG. 4B). […]

CCOC(=O)c1sc(SCc2ccccc2)c2c1CC(c1ccc(OC)cc1)C/C2=N\O (stereo not shown) [Example A1.1]
proliferating cells / overall cell mass (methylene blue staining) [1]: inhibit growth of proliferating cells
senescent cells (number of SA-β-Gal-positive cells) ([1]; dnPTEN-induced senescence): selective elimination of senescent cells
IC50 ([2]; light or radiation study, mSQ, senescence induction: Irradiation, read-out: Activity against Senescent Cells (IC50; uM)): 9.9 µM
IC50 ([2]; mSQ proliferating, read-out: Activity against Proliferating Cells (IC50; uM)): 14.7 µM
IC50 ([2]; mSQ, senescence induction: Bleomycin, read-out: Activity against Senescent Cells (IC50; uM)): 6.7 µM
Selectivity (Prolif/Sen) ([2]; mSQ, Bleomycin): 2.2
Selectivity (Prolif/Sen) ([2]; mSQ, Irradiation): 1.5
sensitivity of senescent vs acutely damaged or proliferating NDF cells ([3]; 1.875-30 μM, 72 hours, bleomycin or 15 Gy senescent vs 4 Gy acutely damaged): greater sensitivity
IC50 ([3]; NDF proliferating, read-out: Activity against Proliferating Cells (IC50; uM)): 18.7 µM
IC50 ([3]; NDF, senescence induction: Bleomycin, read-out: Activity against Senescent Cells (IC50; uM)): 3.5 µM
IC50 ([3]; NDF, senescence induction: Busulfan, read-out: Activity against Senescent Cells (IC50; uM)): 3.6 µM
IC50 ([3]; NDF, senescence induction: Doxorubicin, read-out: Activity against Senescent Cells (IC50; uM)): 5.1 µM
IC50 ([3]; NDF, senescence induction: Etoposide, read-out: Activity against Senescent Cells (IC50; uM)): 3.8 µM
IC50 ([3]; NDF, senescence induction: H2O2, read-out: Activity against Senescent Cells (IC50; uM)): 3.2 µM
IC50 ([3]; NDF, senescence induction: H-Ras, read-out: Activity against Senescent Cells (IC50; uM)): 8.9 µM
IC50 ([3]; NDF, senescence induction: Replicative (late passage), read-out: Activity against Senescent Cells (IC50; uM)): 10.5 µM
IC50 ([3]; light or radiation study, NDF, senescence induction: Irradiation, read-out: Activity against Senescent Cells (IC50; uM)): 6.5 µM
Selectivity (Prolif/Sen) ([3]; NDF, Busulfan): 5.3
Selectivity (Prolif/Sen) ([3]; NDF, Doxorubicin): 3.7
Selectivity (Prolif/Sen) ([3]; NDF, Etoposide): 4.9
Selectivity (Prolif/Sen) ([3]; NDF, H2O2): 5.9
Selectivity (Prolif/Sen) ([3]; NDF, H-Ras): 2.1
Selectivity (Prolif/Sen) ([3]; NDF, Replicative (late passage)): 1.8
number of viable senescent NDF cells ([3]; concentrations as low as 2.5 μM, doxorubicin-, bleomycin- and gamma-irradiation-induced senescence, 72 hours): significantly reduced
B16 growth in vitro (B16 cells): did not inhibit
